Results taken from patent publication US20220133722A1, “PHARMACEUTICAL COMPOSITIONS” (QUE ONCOLOGY PTY LTD, priority 2019, published 2022).
“And” between values parts separate entries of the source, which are not always exact repeats. Identical values can stand only once. Like-named read-outs stand apart in the source and are kept apart here.

Assay: Part 2 PK study: 200 mg QD versus 100 mg BID for 10 days under fed conditions
Assay type: in vivo, human
Conditions: fed; for AUC: read-out: AUC0-tau; for Tmax: read-out: Tmax; for half-life: read-out: t½ (converted); for concentration at 10 day: read-out: Cmin; for Vd/F: read-out: Vz/F
Protocol: Part 2 involved analysing the PK parameters obtained following either single (QD) or twice daily (BD) dosing of a compound of formula (Ia) under fed conditions.
Subjects were randomized 1:1 to receive a daily dose of 200 mg administered once daily in the morning (200 mg capsule) or twice daily (100 mg capsules BID) for a total of 10 days. PK blood samples were taken on Day 1 pre-dose and at 0.25, 0.5, 1.0, 1.5, 2, 3, 4, 8, 10, 12 and 16 hours post-dose. On Days 2 to 10, PK blood samples were taken once pre-dose, and on Days 11 to 14, at 24, 36, 48, 60, 72 and 96 hours post-dose.
Subjects selected for participation checked into the clinical unit and were randomized to the dosing regimen receiving their first dose of study drug on the morning of Day 1 followed by PK and safety assessments through the morning of Day 2 (24 hours post-dose). Subjects on a BID regimen received their second dose of study drug approximately 12 hours after the first dose. Subjects remained confined in the clinic for dosing BID or QD through the last dose of study drug on the morning of Day 10. PK samples were collected through 96 hrs post-dose. Subjects were discharged from the clinic following collection of the 72 hr PK sample, returning to the clinic on the morning of Day 14 for the 96 hr sample collection.
For both Parts 1 and 2, samples were processed and analysed as follows. The method extracted Q-122 and the Internal Standard (IS, Q-122 ^13C4) from human plasma using protein precipitation extraction.
The analytes were separated by HPLC on a Phenomenex Synergi Polar-RP column, and the eluates monitored by an API4000 MS/MS detector in positive MRM mode. The extract was then assayed against a calibration curve. The data were acquired and processed by the data acquisition system Analyst® (Sciex) linked directly to the API4000 MS/MS detector and then processed in Watson LIMS™ (Thermo Scientific), where applicable. The method range is from 10.0 to 2500 ng/mL using 50 μL of matrix and has a run time of approximately 3.2 minutes per sample.
Plasma PK parameters for each dosing regimen and dose level were calculated from the concentrations of Q-122 and its major metabolites measured in pre-dose and post-dose plasma samples. For each dose level, descriptive statistics (sample size, arithmetic means, geometric means, standard deviation, % coefficient of variation, minimum, median, and maximum) are presented.
The pharmacokinetic results were processed according to standard non-compartmental analytical procedures. The software used was Phoenix™ WinNonlin® v 6.4 (Pharsight Corporation, USA) and Microsoft® Excel® 2010 (Microsoft Corporation). The following PK parameters were estimated from plasma data.

[1] = 200 mg QD, Day 10, individual subjects
[2] = human, plasma, oral, 100 mg, 100 mg BID, Day 1, individual subjects
[3] = human, plasma, oral, 100 mg, 100 mg BID, Day 1, mean
[4] = human, plasma, oral, 100 mg, 100 mg BID, Day 1, median
[5] = human, plasma, oral, 100 mg, 100 mg BID, Day 10, individual subjects
[6] = human, plasma, oral, 100 mg, 100 mg BID, Day 10, mean
[7] = human, plasma, oral, 100 mg, 100 mg BID, Day 10, median
[8] = human, plasma, oral, 200 mg, 200 mg QD, Day 1, mean
[9] = human, plasma, oral, 200 mg, 200 mg QD, Day 1, median
[10] = human, plasma, oral, 200 mg, 200 mg QD, Day 10, mean
[11] = human, plasma, oral, 200 mg, 200 mg QD, Day 10, median

With `c1cnc(NCc2ccc(CNc3ncccn3)cc2)nc1` [Q-122] the “% AUCexp” value [1] was 2.32% and 3.36% and 2.33% and 7.19% and 10.70% and 1.77%, the AUC0-last [1] was 12003 ng·h/mL and 11557 ng·h/mL and 9531 ng·h/mL and 14024 ng·h/mL and 6077 ng·h/mL and 10643 ng·h/mL and the AUC0-tau [1] was 10424 ng·h/mL and 9904 ng·h/mL and 8868 ng·h/mL and 11036 ng·h/mL and 3134 ng·h/mL and 9758 ng·h/mL. For the same molecule, the AUCinf [1] was 12287 ng·h/mL and 11959 ng·h/mL and 9759 ng·h/mL and 15111 ng·h/mL and 6805 ng·h/mL and 10834 ng·h/mL, the “Accum Index” value [1] was 1.44 and 1.78 and 1.34 and 2.88 and 2.25 and 1.22 and the CLss/F [1] was 19.19 L/h and 20.19 L/h and 22.55 L/h and 18.12 L/h and 63.82 L/h and 20.50 L/h. The Cavg [1] was 434.33 ng/mL and 412.65 ng/mL and 369.52 ng/mL and 459.84 ng/mL and 130.57 ng/mL and 406.57 ng/mL, the Cmax [1] was 1450.00 ng/mL and 1730.00 ng/mL and 1430.00 ng/mL and 1320.00 ng/mL and 245.00 ng/mL and 1470.00 ng/mL and the Cmin [1] was 74.10 ng/mL and 73.50 ng/mL and 52.20 ng/mL and 93.90 ng/mL and 68.20 ng/mL and 77.70 ng/mL. For the same molecule, the Fluct [1] was 316.79% and 401.43% and 372.87% and 266.63% and 135.41% and 342.45%, the Tlast [1] was 60.00 h and 72.00 h and 48.00 h (2×) and 96.00 h (2×) and the t½ [1] was 13.99 h and 20.21 h and 12.03 h and 39.04 h and 28.35 h and 9.63 h. The “% AUCexp” value (200 mg QD, Day 10, max) was 10.70%, the AUC0-last (200 mg QD, Day 10, max) was 14024 ng·h/mL and the AUC0-tau (200 mg QD, Day 10, max) was 11036 ng·h/mL. For the same molecule, the AUCinf (200 mg QD, Day 10, max) was 15111 ng·h/mL, the “Accum Index” value (200 mg QD, Day 10, max) was 2.88 and the CLss/F (200 mg QD, Day 10, max) was 63.82 L/h. The Cavg (200 mg QD, Day 10, max) was 459.84 ng/mL, the Cmax (200 mg QD, Day 10, max) was 1730.00 ng/mL and the Cmin (200 mg QD, Day 10, max) was 93.90 ng/mL. It also gave a Fluct (200 mg QD, Day 10, max) of 401.43%, a Tlast (200 mg QD, Day 10, max) of 96.00 h and a t½ (200 mg QD, Day 10, max) of 39.04 h. The “% AUCexp” value (200 mg QD, Day 10, mean) was 4.612%, the CLss/F (200 mg QD, Day 10, mean) was 27.396 L/h and the Cavg (200 mg QD, Day 10, mean) was 368.913 ng/mL. The Cmin (200 mg QD, Day 10, mean) was 73.267 ng/mL, the Fluct (200 mg QD, Day 10, mean) was 305.929% and the Tlast (200 mg QD, Day 10, mean) was 70.000 h. For the same molecule, the “% AUCexp” value (200 mg QD, Day 10, median) was 2.85%, the “Accum Index” value (200 mg QD, Day 10, median) was 1.61 and the CLss/F (200 mg QD, Day 10, median) was 20.35 L/h. The Cavg (200 mg QD, Day 10, median) was 409.61 ng/mL, the Cmin (200 mg QD, Day 10, median) was 73.80 ng/mL and the Fluct (200 mg QD, Day 10, median) was 329.62%. The Tlast (200 mg QD, Day 10, median) was 66.00 h, the “% AUCexp” value (200 mg QD, Day 10, min) was 1.77% and the AUC0-last (200 mg QD, Day 10, min) was 6077 ng·h/mL. The AUC0-tau (200 mg QD, Day 10, min) was 3134 ng·h/mL, the AUCinf (200 mg QD, Day 10, min) was 6805 ng·h/mL and the “Accum Index” value (200 mg QD, Day 10, min) was 1.22. The CLss/F (200 mg QD, Day 10, min) was 18.12 L/h, the Cavg (200 mg QD, Day 10, min) was 130.57 ng/mL and the Cmax (200 mg QD, Day 10, min) was 245.00 ng/mL. The Cmin (200 mg QD, Day 10, min) was 52.20 ng/mL, the Fluct (200 mg QD, Day 10, min) was 135.41% and the Tlast (200 mg QD, Day 10, min) was 48.00 h. It also gave a t½ (200 mg QD, Day 10, min) of 9.63 h, an AUC(0-t) [2] of 8170 ng·h/mL and an AUC [2] of 2800 ng·h/mL. For the same molecule, the AUC(0-t) [3] was 6630 ng·h/mL, the AUC [3] was 3590 ng·h/mL and the Cmax (human, plasma, oral, 100 mg, 100 mg BID, Day 1, mean, read-out: Cmax) was 730 ng/mL. For the same molecule, the Tmax [3] was 2.25 h, the half-life [3] was 5.49 h and the AUC(0-t) [4] was 6640 ng·h/mL. It also gave an AUC [4] of 3690 ng·h/mL, a Cmax (human, plasma, oral, 100 mg, 100 mg BID, Day 1, median, read-out: Cmax) of 809 ng/mL and a Tmax [4] of 2 h. The half-life [4] was 5.1 h, the AUC(0-inf) [5] was 9020 ng·h/mL and the AUC(0-t) [5] was 8810 ng·h/mL. The AUC [5] was 7000 ng·h/mL, the Cmax (human, plasma, oral, 100 mg, 100 mg BID, Day 10, individual subjects, read-out: Cmax) was 1300 ng/mL and the Tmax [5] was 2 h. It also gave an AUC(0-inf) [6] of 7270 ng·h/mL, an AUC(0-t) [6] of 6950 ng·h/mL and an AUC [6] of 5440 ng·h/mL. The Cmax (human, plasma, oral, 100 mg, 100 mg BID, Day 10, mean, read-out: Cmax) was 1020 ng/mL, the concentration at 10 day [6] was 146 ng/mL and the Tmax [6] was 1.75 h. The Vd/F [6] was 370 L, the half-life [6] was 11.8 h and the AUC(0-inf) [7] was 7310 ng·h/mL. For the same molecule, the AUC(0-t) [7] was 7040 ng·h/mL, the AUC [7] was 5760 ng·h/mL and the Cmax (human, plasma, oral, 100 mg, 100 mg BID, Day 10, median, read-out: Cmax) was 1060 ng/mL. For the same molecule, the Tmax [7] was 2 h, the Vd/F [7] was 210 L and the half-life [7] was 8.2 h. The Tmax (human, plasma, oral, 200 mg, 200 mg QD, Day 1, individual subjects) was 3 h, the AUC(0-t) [8] was 8060 ng·h/mL and the AUC [8] was 8060 ng·h/mL. For the same molecule, the Cmax (human, plasma, oral, 200 mg, 200 mg QD, Day 1, mean, read-out: Cmax) was 1350 ng/mL, the Tmax [8] was 3.17 h and the half-life [8] was 8.64 h. It also gave an AUC(0-t) [9] of 7790 ng·h/mL, an AUC [9] of 7790 ng·h/mL and a Cmax (human, plasma, oral, 200 mg, 200 mg QD, Day 1, median, read-out: Cmax) of 1560 ng/mL. It also gave a Tmax [9] of 3 h, a half-life [9] of 7.7 h and a Tmax (human, plasma, oral, 200 mg, 200 mg QD, Day 10, individual subjects) of 4 h. The AUC(0-inf) [10] was 11100 ng·h/mL, the AUC(0-t) [10] was 10600 ng·h/mL and the AUC [10] was 8850 ng·h/mL. For the same molecule, the Cmax (human, plasma, oral, 200 mg, 200 mg QD, Day 10, mean, read-out: Cmax) was 1270 ng/mL, the concentration at 10 day [10] was 73 ng/mL and the Tmax [10] was 3.33 h. It also gave a Vd/F [10] of 881 L, a half-life [10] of 20.5 h and an AUC(0-inf) [11] of 11400 ng·h/mL. It also gave an AUC(0-t) [11] of 11100 ng·h/mL, an AUC [11] of 9830 ng·h/mL and a Cmax (human, plasma, oral, 200 mg, 200 mg QD, Day 10, median, read-out: Cmax) of 1440 ng/mL. The Tmax [11] was 3.5 h, the Vd/F [11] was 490 L and the half-life [11] was 17.1 h.
